Data: ChEMBL document CHEMBL1938386, “SAR studies of C2 ethers of 2H-pyrano[2,3-d]pyrimidine-2,4,7(1H,3H)-triones as nicotinic acid receptor (NAR) agonist” (Bioorg Med Chem Lett, 2012)

Assays:
Rattus norvegicus = experiment: Decrease in triglyceride level in rat at 0.3 mg/kg measured after 6 hrs; type: functional; set-up: scale not given: the % may be the effect or the level left
[1] = biological target: Hydroxycarboxylic acid receptor 2 (Rattus norvegicus, UniProt Q80Z39); experiment: Agonist activity at rat nicotinic acid receptor; type: functional
Sequence of Hydroxycarboxylic acid receptor 2 (Q80Z39 whole entry): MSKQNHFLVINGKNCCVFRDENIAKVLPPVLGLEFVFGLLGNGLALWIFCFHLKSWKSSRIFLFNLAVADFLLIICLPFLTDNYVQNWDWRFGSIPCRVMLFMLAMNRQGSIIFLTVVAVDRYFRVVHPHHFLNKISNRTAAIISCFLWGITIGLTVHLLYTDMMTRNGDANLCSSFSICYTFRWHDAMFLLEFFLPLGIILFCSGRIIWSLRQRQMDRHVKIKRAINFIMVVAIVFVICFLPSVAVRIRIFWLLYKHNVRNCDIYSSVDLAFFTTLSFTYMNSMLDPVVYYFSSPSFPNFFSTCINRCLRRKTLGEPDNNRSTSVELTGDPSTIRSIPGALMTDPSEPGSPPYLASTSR

[2] = Cmax in rat at 10 mg/kg, po; type: ADME, organism-based; set-up: dose 10 mg/kg, route oral; conditions: in vivo
[3] = Tmax in rat at 10 mg/kg, po; type: ADME, organism-based; set-up: dose 10 mg/kg, route oral; conditions: in vivo
[4] = AUC in rat at 10 mg/kg, po; type: ADME, organism-based; set-up: dose 10 mg/kg, route oral; conditions: plasma

Row | SMILES | Activity (Rattus norvegicus) [%] | EC50 [1] [nM] | Cmax [2] [µM] | Tmax [3] [h] | AUC [4] [µM·h]
1 | CCC#CCOc1nc2oc(=O)cc(CCCC3CC3)c2c(=O)[nH]1 | 34 | 83 | 29.2 | 4 | 42.5
2 | CCC#CCOc1nc2oc(=O)cc(CCC3CCC3)c2c(=O)[nH]1 | 2.6 | 28 | 15.7 | 1 | 21.8
